Reference: PMC3690263, “Trypanocidal Activity of Smallanthus sonchifolius: Identification of Active Sesquiterpene Lactones by Bioassay-Guided Fractionation” (Evidence-based Complementary and Alternative Medicine : eCAM, 2013)
Values joined by “and” are separate entries in the source; they are usually repeats but may differ in a detail not shown here. Identical values can stand only once. “Also recorded” adds a separate entry of the source.

Columns and labels:
[1] = test system: T. cruzi epimastigotes (RA strain); test: [3H] thymidine uptake assay, growth inhibition of T. cruzi epimastigotes; format: cell-based; conditions: Trypanosoma cruzi, 72 h of incubation
Procedure: T. cruzi epimastigotes (RA strain) were grown in liver infusion tryptose medium (LIT) supplemented with 10% fetal bovine serum (Natocor). Cultures were routinely maintained by weekly passages at 28°C. T. cruzi trypomastigotes were routinely maintained by infecting 21-day-old male CF1 mice. T. cruzi amastigotes were obtained by infecting J774 cells with bloodstream trypomastigotes.
S. sonchifolius OE and fractions F 1A–F 5B were tested for trypanocidal activity against T. cruzi epimastigotes, at final concentrations of 10 μg/mL and 100 μg/mL, by a [^3H] thymidine uptake assay as previously described. Compounds 1, 2, and 3 were tested at final concentrations ranging from 0.01 μg/mL to 50 μg/mL. Stock solutions of the samples were prepared in ethanol : water (1 : 1). Epimastigotes in exponential growth phase were adjusted to 1.5 × 10^6 parasites/mL and seeded on 96-well plates in the presence of the different concentrations of OE, fractions, or compounds. Parasites were cultured in triplicate for 72 h. Control parasites were cultured in absence or presence of benznidazole (20 μM; Roche-Rio de Janeiro, Brazil). Percentage inhibition was calculated as 100 − {[(cpm of treated parasites)/(cpm of untreated parasites)] × 100}. The compound concentration at which the parasite growth was inhibited by 50% (inhibitory concentration 50, IC50) was determined after 72 h.

[2] = test system: T. cruzi trypomastigotes; test: Trypanocidal effect on bloodstream trypomastigotes, counting of remaining live parasites; format: cell-based, Trypanosoma cruzi; conditions: 24 h; for IC50: Trypanosoma cruzi
Procedure: The trypanocidal effect of compounds 1, 2, and 3 was also tested on bloodstream trypomastigotes as previously described. Briefly, mouse blood containing trypomastigotes was adjusted to a concentration of 1.5 × 10^6 parasite/mL and seeded (150 μL/well) by duplicate into a 96-well microplate, in the presence of each compound (1 to 50 μg/mL, final concentration). Plates were incubated for 24 h, and the remaining live parasites were counted in a haemocytometer.

[3] = MTT cytotoxicity assay; format: cell-based; conditions: African green monkey, Vero cells
Procedure: The cytotoxic effect of compounds 1, 2, and 3 on Vero cells was evaluated by using the MTT tetrazolium salt (3-(4,5-dimethylthiazol-2-yl)-2,5-diphenyltetrazolium bromide) (Sigma) colorimetric assay. Cells (5 × 10^4 cells/well) were seeded at a final volume of 150 μL in a flat-bottom 96-well microplate and cultured at 37°C in a 5% CO2 atmosphere in the absence or presence of increasing concentrations of the compounds (1–50 μg/mL). After 24 h, MTT was added at a final concentration of 1.5 mg/mL and plates were incubated for 2 h at 37°C. The purple formazan crystals were completely dissolved by adding 150 μL of ethanol, and the absorbance was detected at 570 nm in a microplate reader. Results were calculated as the ratio between optical density in the presence and absence of the compound multiplied by 100. The 50% cytotoxic concentration (CC50) was calculated for each compound. All experiments were made in duplicate.

[4] = test system: T. cruzi epimastigotes; test: Recovery of epimastigotes after 24 h treatment (residual effect), Neubauer chamber counting; format: cell-based, Trypanosoma cruzi; conditions: for reduction in the replication rate / amount of parasites after treatment: epimastigotes; for reduction in the replication rate: at 24 h after treatment; for amount of parasites after treatment: 24 h treatment
Procedure: To determine whether the parasites could recover after treatment with the pure compounds, T. cruzi epimastigotes were incubated with compounds 1–3 (0.1, 1, and 10 μg/mL) for 24 h. Parasites were then centrifuged at 3000 rpm for 10 min, resuspended in fresh medium, and incubated for 2 additional days, counting the number of parasite in a Neubauer chamber on a daily basis.

[5] = test system: T. cruzi amastigotes; test: Intracellular amastigotes in J774 macrophages, β-galactosidase/CPRG assay; format: cell-based, Trypanosoma cruzi; conditions: for selectivity index (SI): CC50 Vero cells divided by IC50 T. cruzi amastigotes; for IC50: Trypanosoma cruzi, intracellular amastigotes in J774 macrophages, 48 h after addition
Procedure: To evaluate the effect of compounds 1–3 on intracellular forms of T. cruzi, 96-well plates were seeded with J774 murine macrophages at 5 × 10^3 per well in 100 μL of culture medium and incubated for 2 h at 37°C in a 5% CO2 atmosphere. Cells were infected with transfected blood trypomastigotes expressing β-galactosidase at a parasite : cell ratio of 10 : 1. After 2 h of coculture, plates were washed twice with PBS to remove free parasites and compounds 1–3 were added at 0.1–50 μg/mL per well in 150 μL of fresh complete RPMI medium without phenol red (Gibco, Rockville, MD). Controls included infected nontreated cells (100% infection control) and uninfected cells (0% infection control). The assay was developed 48 h later by addition of chlorophenol red-β-d-galactopyranoside (100 μM CPRG) and 1% Nonidet P40. Plates were incubated for 4–6 h at 37°C. Wells with galactosidase activity turned the media from yellow to red, and this reaction was quantified at 590 nm in a microplate reader (Bio-Rad Laboratories, Hercules, CA). Percentage inhibition was calculated as 100 − {[(absorbance of treated infected cells)/(absorbance of untreated infected cells)] × 100} and the IC50 value calculated.
The selectivity index (SI) of each compound was calculated as the CC50 obtained with Vero cells divided by the IC50 obtained against T. cruzi amastigotes.

[6] = 10 μg/mL for 24 h, then 2 days in fresh medium

Structure (SMILES)	IC50 [1]	IC50 [2]	CC50 at 24 h [3]	recovery of epimastigote replication after removal of compound [4, 6]	reduction in the replication rate ([4]; 1 μg/mL) [%]	amount of parasites after treatment ([4]; 10 μg/mL)	selectivity index (SI) [5]	IC50 [5]	activity against trypomastigotes ([2]; 1 to 50 μg/mL)	recovery of epimastigote replication after removal of compound ([4]; 0.1 μg/mL for 24 h, then fresh medium)	reduction in the replication rate ([4]; 10 μg/mL) [%]
C=C1C(=O)O[C@H]2[C@H]1[C@H](OC(=O)[C@@]1(C)O[C@H]1C)[C@@H](OC(C)=O)/C(C(=O)OC)=C\CC[C@@]1(C)O[C@H]21 [enhydrin, 4α,5β-epoxy-8β-(2′S,3′S)-epoxyangeloyloxy-9α-acetyloxy-1(10)E,11(13)-germacradien-12,6α-olide-14-oic-acid methyl ester]	840 nM and 0.39 µg/mL	33.4 µM and 15.5 µg/mL	46.5 µM and 21.6 µg/mL	not able to recover their replication rate; also recorded: no recuperation of the epimastigotes was observed; also recorded: not able to recover their initial replication rates	~50	drastic reduction in the amount of parasites	9	5.17 µM and 2.4 µg/mL	–	–	–
C=C1C(=O)O[C@@H]2/C=C(\C)CC/C=C(/C(=O)OC)[C@H](OC(C)=O)[C@@H](OC(=O)/C(C)=C\C)[C@@H]12 [polymatin B, 8β-angeloyloxi-9α-acetyloxi-1(10)E,4E,11(13)-germacratrien-12,6α-olide-14-oic acid methyl ester]	4.9 µM and 2.12 µg/mL	–	147 µM and 63.7 µg/mL	–	–	–	16.3	9.02 µM and 3.9 µg/mL	not active	recovered their replication rates at values similar to the control parasites	~50
C=C1C(=O)O[C@@H]2/C=C(\C)CC/C=C(/C(=O)OC)[C@H](OC(C)=O)[C@@H](OC(=O)[C@]3(C)O[C@@H]3C)[C@@H]12 [uvedalin, 8β-(2′S,3′S)-epoxyangeloyloxy-9α-acetyloxy-1(10)E,4E,11(13)-germacratrien-12,6α-olide-14-oic acid methyl ester]	1.09 µM and 0.49 µg/mL	25 µM and 11.2 µg/mL	46.8 µM and 21 µg/mL	not able to recover their replication rate; also recorded: no recuperation of the epimastigotes was observed; also recorded: not able to recover their initial replication rates	~50	drastic reduction in the amount of parasites	14	3.34 µM and 1.5 µg/mL	–	–	–
